Measured values published in patent US11713447B2, “Production of megakaryoctye compositions and therapies for treatment of thrombocytopenia” (Icahn School of Medicine at Mount Sinai, priority 2016, dated 2023).

Columns and labels:
[1] = test system: Cord blood (CB) CD34+ cells; experiment: TPO-mediated MK differentiation after VPA expansion of CB CD34+ cells; type: cell-based
Method: For this, 50,000 cryopreserved CB CD34+ cells were plated in serum-free (SF) media supplemented with stem cell factor (SCF), interleukin-3 (IL-3), Fms-like tyrosine kinase 3 (FLT-3), and TPO and allowed to expand with or without VPA (testing vs. control), as described in Example 1 above. After 7 days, instead of collecting, the cells were washed to remove VPA and cytokines, and re-plated in SF medium supplemented only with TPO. Approximately 50% more CD41+ MKs were detected in the VPA-expanded cultures than in cultures expanded with only cytokines (FIG. 3A). This corresponded to a final yield of ˜40 MKs generated from 1 CD34+ cell plated in the presence of VPA compared to […] CD41+ MKs generated by 1 CD34+ cell plated in the absence of VPA. q-PCR analyses confirmed upregulation of MK-specific genes (GATA1, PF4, and NFE2) in the cultures exposed to VPA before MK differentiation (FIG. 3B).

[2] = test system: Cord blood (CB) CD34+ cells; experiment: Ex vivo expansion of CB CD34+ cells in serum-free culture with valproic acid; type: cell-based
Method: Cord blood (CB) CD34+ cells were obtained and separated into a testing group and a control group. The groups were subjected to the following cell culture protocol:
The CB CD34+ cells were primed with a cytokine cocktail and plated in serum-free (SF) culture. The cytokine cocktail included stem cell factor (SCF) at an amount of 150 ng/mL, interleukin-3 (IL-3) at an amount of 50 ng/mL, Fms-like tyrosine kinase 3 (FLT-3) at an amount of 100 ng/mL, and thrombopoietin (TPO) at an amount of 100 ng/mL.
1 mM valproic acid (VPA) was added to the SF culture (testing group only). No VPA was added to the control group.
The cells were allowed to expand in the SF culture and collected at Day 7. Total CD34+ cell expansion was around 200-fold.

## CCCC(CCC)C(=O)O [VPA, valproic acid]
[1]; 7 days expansion with VPA, then SF medium with TPO only
  more CD41+ MKs in VPA-expanded cultures than in cultures expanded with only cytokines: Approximately 50%
[1]; cultures exposed to VPA before MK differentiation
  q-PCR expression of MK-specific genes (GATA1, PF4, and NFE2): upregulation
[1]; plated in the presence of VPA
  final yield of MKs generated from 1 CD34+ cell plated: 40 MKs generated from 1 CD34+ cell
[2]; 1 mM VPA added day 1, SF culture with SCF, IL-3, FLT-3, TPO
  number of CD34+ cells in VPA-treated cultures relative to cells expanded in the absence of VPA: > 200 fold
[2]; 1 mM VPA, SF culture, collected at Day 7
  Total CD34+ cell expansion: around 200 fold
[2]; VPA-treated SF culture
  CD41+ MK cells in expanded HSCs: 8.9±2%
  glycophorin (GPA)+ erythroid cells in expanded HSCs: 17±5.4%
  primitive CD34+/CD90+ cells in expanded HSCs: 74.2±9.8%
